What was measured:
[1] = target: HCV RNA dependent RNA polymerase (RdRp), NS5B (Hepatitis C virus genotype 1b, UniProt P26663); assay: Incorporation of phosphonate ATP analogs into RNA product by HCV RdRp (gel, extension of [33P]GpC); format: biochemical; conditions: for extension of [33P]GpC by HCV RdRp (incorporation into RNA product): 1 mM nucleotide, 10 μM [33P]GpC, 10 μM 5′-AAAAAAAUGC-3′ template, 2.5 μM HCV RdRp, FIG. 8
Description: Among other nucleotide analogs (data not shown), two exemplary phosphonate analogs of ATP, 5′-deoxy-5′-phosphonate (5′d-ATP) and 5′-deoxy-5′-methylene phosphonate (5′d-CH2-ATP), were tested for inhibition and/or incorporation into an RNA product by the HCV RNA dependent RNA polymerase (RdRp). The incorporation reactions included 1 mM of the phosphonate analog or ATP, 10 μM of [^33P]GpC, 10 μM of 5′-AAAAAAAUGC-3′, and 2.5 μM of HCV RdRp in a buffer that contained 50 mM Hepes, pH 7.3, 10 mM DTT, and 5 mM MgCl2. The RNA products were resolved on a 25% polyacrylamide-7M urea-TBE gel. […] The incorporation of 5′d-CH2-ATP is less efficient than that of ATP by 10-fold. To look for further elongation after incorporation of ATP or 5′d-CH2-ATP, the same experiment was performed in the presence of additional UTP (1 mM).
Exemplary results of such tests are depicted in the autoradiograph of FIG. 8 showing RNA products from incorporations of ATP and phosphonate analogs of ATP by HCV RdRp. Each reaction contained 2.5 μM of RdRp, 10 μM of [^33P]GpC, 10 μM template, and the following nucleotides (1 mM): lane 1, none; lane 2, ATP; lane 3,5′-deoxy-5′-phosphonate ATP; lane 4,5′-deoxy-5′-methylene phosphonate ATP; lane 5, ATP and UTP; lane 6,5′-deoxy-5′-phosphonate ATP and UTP; lane 7,5′-deoxy-5′-methylene phosphonate ATP and UTP. The reaction products were resolved on a 25% polyacrylamide-7 M urea-TBE gel and the gel was scanned on a PhosporImager.

E. coli RNA polymerase = E. coli RNA polymerase (Escherichia coli, UniProt P0A8T7+P0A8V2); conditions: Savochkina et al. Mol. Biol. (Mosk) 1989; cited from earlier work
E. coli RNA polymerase, sequence (P0A8T7 whole entry): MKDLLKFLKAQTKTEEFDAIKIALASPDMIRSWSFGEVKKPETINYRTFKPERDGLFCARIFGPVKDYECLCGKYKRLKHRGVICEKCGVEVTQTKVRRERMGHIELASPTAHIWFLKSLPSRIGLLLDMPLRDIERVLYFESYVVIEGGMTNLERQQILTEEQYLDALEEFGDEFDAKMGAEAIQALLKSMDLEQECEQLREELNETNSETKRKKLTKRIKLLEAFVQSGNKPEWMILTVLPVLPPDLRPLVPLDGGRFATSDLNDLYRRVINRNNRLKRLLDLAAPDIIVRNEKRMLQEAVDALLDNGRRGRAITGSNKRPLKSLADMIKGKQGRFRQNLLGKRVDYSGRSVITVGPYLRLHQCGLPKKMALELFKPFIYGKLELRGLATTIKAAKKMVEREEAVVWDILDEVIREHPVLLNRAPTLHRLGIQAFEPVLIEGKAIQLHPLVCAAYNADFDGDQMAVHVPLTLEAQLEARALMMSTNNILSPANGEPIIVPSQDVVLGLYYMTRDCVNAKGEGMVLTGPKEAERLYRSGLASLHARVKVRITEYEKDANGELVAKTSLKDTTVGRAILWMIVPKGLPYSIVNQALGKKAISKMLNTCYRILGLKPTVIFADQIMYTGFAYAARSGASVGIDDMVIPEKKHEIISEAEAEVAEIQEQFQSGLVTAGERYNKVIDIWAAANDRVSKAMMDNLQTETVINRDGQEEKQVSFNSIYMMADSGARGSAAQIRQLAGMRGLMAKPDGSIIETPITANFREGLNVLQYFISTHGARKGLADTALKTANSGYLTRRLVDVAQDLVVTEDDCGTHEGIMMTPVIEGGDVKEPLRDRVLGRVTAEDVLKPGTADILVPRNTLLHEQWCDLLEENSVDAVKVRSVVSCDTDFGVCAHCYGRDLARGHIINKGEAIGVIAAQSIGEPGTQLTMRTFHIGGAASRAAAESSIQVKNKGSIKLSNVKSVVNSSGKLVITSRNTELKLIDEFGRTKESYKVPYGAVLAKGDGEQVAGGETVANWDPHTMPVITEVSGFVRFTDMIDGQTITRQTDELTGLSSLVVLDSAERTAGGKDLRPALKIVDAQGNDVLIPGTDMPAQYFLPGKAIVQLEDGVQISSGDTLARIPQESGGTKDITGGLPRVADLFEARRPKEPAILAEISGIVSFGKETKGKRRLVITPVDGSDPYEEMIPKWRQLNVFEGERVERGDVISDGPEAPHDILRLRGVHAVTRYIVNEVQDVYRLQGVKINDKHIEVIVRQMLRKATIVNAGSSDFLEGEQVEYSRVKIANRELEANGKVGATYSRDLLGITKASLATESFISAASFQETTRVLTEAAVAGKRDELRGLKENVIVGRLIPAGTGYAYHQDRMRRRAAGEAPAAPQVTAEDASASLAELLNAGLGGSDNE
E. coli RNA polymerase, sequence (P0A8V2 whole entry): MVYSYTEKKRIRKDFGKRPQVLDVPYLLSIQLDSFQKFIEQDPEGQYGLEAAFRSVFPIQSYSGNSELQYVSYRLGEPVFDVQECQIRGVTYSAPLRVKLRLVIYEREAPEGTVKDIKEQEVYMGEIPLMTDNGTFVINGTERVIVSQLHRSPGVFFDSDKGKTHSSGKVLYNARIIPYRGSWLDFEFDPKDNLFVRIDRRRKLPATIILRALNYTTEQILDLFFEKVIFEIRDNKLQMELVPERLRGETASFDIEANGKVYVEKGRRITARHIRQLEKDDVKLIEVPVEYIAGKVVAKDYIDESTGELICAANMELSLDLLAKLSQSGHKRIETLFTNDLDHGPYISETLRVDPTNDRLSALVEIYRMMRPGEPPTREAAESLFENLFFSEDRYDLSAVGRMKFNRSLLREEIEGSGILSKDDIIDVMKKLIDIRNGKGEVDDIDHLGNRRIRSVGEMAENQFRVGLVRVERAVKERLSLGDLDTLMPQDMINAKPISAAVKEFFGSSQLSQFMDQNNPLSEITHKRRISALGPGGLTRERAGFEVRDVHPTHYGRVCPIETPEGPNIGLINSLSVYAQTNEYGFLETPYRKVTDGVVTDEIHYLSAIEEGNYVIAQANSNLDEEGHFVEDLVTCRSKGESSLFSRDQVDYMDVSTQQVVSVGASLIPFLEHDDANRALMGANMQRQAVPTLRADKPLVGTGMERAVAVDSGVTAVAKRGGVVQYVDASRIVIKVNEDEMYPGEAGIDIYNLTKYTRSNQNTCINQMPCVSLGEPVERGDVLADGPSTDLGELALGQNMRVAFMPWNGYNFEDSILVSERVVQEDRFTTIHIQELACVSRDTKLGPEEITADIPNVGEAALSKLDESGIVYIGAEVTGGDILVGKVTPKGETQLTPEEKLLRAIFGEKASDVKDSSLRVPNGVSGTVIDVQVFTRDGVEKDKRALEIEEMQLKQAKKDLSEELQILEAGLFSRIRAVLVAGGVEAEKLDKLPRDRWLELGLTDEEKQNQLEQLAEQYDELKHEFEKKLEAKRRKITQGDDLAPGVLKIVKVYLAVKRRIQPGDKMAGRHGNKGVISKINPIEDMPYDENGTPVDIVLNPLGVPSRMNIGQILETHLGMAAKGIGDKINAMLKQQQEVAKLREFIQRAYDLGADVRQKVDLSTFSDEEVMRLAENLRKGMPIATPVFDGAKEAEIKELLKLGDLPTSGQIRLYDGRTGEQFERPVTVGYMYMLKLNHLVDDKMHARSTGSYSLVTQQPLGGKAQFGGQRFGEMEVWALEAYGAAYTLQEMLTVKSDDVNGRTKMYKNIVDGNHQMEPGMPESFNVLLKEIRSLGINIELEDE
E. coli RNA polymerase, sequence (P0A7Z4 whole entry, further chain): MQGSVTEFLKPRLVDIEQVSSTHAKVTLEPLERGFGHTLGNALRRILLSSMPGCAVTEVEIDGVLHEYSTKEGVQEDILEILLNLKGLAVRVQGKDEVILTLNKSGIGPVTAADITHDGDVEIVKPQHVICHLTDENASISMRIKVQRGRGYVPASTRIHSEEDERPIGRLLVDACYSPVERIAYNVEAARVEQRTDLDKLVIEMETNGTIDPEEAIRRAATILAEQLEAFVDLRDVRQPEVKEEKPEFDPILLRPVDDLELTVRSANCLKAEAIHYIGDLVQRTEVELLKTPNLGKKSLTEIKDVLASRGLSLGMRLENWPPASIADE
E. coli RNA polymerase, sequence (P0A800 whole entry, further chain): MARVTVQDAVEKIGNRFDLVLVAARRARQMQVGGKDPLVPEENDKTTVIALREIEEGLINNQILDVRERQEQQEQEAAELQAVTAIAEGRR

HCV RNA dependent RNA polymerase (RdRp), NS5B, sequence (P26663 2420-3010): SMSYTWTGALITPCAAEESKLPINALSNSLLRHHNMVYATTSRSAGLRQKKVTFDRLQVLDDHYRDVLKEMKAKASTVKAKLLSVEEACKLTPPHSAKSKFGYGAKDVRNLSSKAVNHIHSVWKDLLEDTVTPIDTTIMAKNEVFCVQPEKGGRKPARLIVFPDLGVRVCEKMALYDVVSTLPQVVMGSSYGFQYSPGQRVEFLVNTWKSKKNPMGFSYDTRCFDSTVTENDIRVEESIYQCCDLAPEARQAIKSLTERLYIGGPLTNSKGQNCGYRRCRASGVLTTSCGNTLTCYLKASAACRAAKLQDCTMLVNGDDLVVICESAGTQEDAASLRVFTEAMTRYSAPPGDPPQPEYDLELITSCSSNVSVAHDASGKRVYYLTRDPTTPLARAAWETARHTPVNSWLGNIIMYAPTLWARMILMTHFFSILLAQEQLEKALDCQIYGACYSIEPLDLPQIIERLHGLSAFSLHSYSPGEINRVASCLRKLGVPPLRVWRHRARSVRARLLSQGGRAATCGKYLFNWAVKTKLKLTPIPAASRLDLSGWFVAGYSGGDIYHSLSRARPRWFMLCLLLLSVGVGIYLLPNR

SMILES | extension of [33P]GpC by HCV RdRp (incorporation into RNA product) [1] | further elongation by UTP after incorporation ([1]; same experiment with additional UTP (1 mM)) | effect on RNA synthesis by E. coli RNA polymerase (E. coli RNA polymerase)
Nc1ncnc2c1ncn2[C@@H]1O[C@H](CP(=O)(O)OP(=O)(O)OP(=O)(O)O)[C@@H](O)[C@H]1O [5′d-ATP] | no extension | – | –
Nc1ncnc2c1ncn2[C@@H]1O[C@H](COP(=O)(O)OP(=O)(O)OP(=O)(O)O)[C@@H](O)[C@H]1O [ATP] | extension of [^33P]GpC by HCV RdRp was observed | Elongation products by UTP were seen | –
O=c1ccn([C@@H]2O[C@@H](CP(=O)(O)OP(=O)(O)OP(=O)(O)O)[C@@H](O)[C@H]2O)c(=O)[nH]1 [Phosphonate (5-deoxy) UTP] | – | – | pseudoterminator of RNA synthesis
